Measurements from patent US7855073B2, “Cells containing a nanopatch sensor in their membrane” (Ben-Gurion University of the Negev Research and Development …, priority 2003, dated 2010).

Key:
CHO cells = test: Detection of membrane perturbations, nanopatch-containing CHO cells; assay type: cell-based; details: FIG. 10
Experimental: PDA nanopatch-containing CHO cells were prepared as described in Example 1, hereinabove, and treated with propranolol, a membrane-active pharmaceutical compound.

U937 cells = test: Detection of membrane perturbations by fluorescence microscopy, nanopatch-containing U937 cells; assay type: cell-based, human
Experimental: U937 cells were grown and prepared as described in section 1.1 of Example 1, hereinabove. The precursors of the Lipid/PDA constructs (i.e. a mixture of 10,12-tricosadiynoic acid, PE and PG at a molar ratio of 8:1:1) were prepared and introduced into the cells in accordance with the methods described in sections 1.2 and 1.3 of Example 1.
Separate aliquots of cells containing the lipid/PDA constructs were then subjected to the membrane-perturbing treatments described below.
Transmission differential interference contrast (DIC) and fluorescence images of the cells were acquired on a laser scanning confocal microscope (Olympus IX70) with an PlApo 60× objective using oil (NA 1.4). Excitation was at 488 nm using argon laser source. Emitted light was collected through a LP 560 nm filter.

cultured neuronal cells = test: Detection of membrane perturbations, nanopatch-containing neuron cells; assay type: cell-based, rat; details: 50 mM in medium; FIG. 7
Experimental: Cell cultures were prepared from the Hippocampi of one-day-old rat pups as follows. Tissue was treated for 30 min at 37° C. with 0.25% trypsin (type XI; Sigma), and then gently triturated and the dissociated cells were plated at a concentration of 2×10^5/ml onto poly-D-lysine ([…]; Sigma) and laminin ([…]; Collaborative Research)—coated glass coverslips. Cells were plated in Eagle's minimal essential medium (MEM) containing 10% heat-inactivated fetal bovine serum (HyClone), 2 mM glutamine, and 0.76% glucose. On the following day, the medium was replaced with fresh SF1C medium [Rayport, D. et al. (1992) J. Neurosci. 12, 4264-4280], including B-27 supplements (GIBCO). The cells were grown for up to 12 days in a humid incubator containing 5% CO2/95% air at 37° C. prior to use.
Cells were incubated with DMPE/DMPG/PDA-1:1:6 (mole ratio) vesicles in TG1 buffer (119 mM NaCl, 5 mM KCl, 30 mM Glucose, 32 mM Sucrose, 20 mM Hepes, pH=7.3) for 1 hour at room temperature. Following the fusion, vesicles were polymerized by UV irradiation at 254 nm for 10 seconds and the unbound vesicles were washed 3 times with TG1 buffer.
Fluorescent images of the cells were acquired using a Zeiss 200M microscope (Germany) fitted with a CY3 570-650 nm emission range filter (Chroma Technology Corp., Rockingham, Vt.) and CCD cooled camera (PCO). […]

Erythrocyte "ghosts" = test: Detection of membrane perturbations, nanopatch-containing erythrocyte ghosts; assay type: cell-based; details: ghosts labeled with DMPC/PDA liposomes; FIG. 11
Experimental: Erythrocyte “ghosts” (i.e. emptied cells) were labeled with DMPC/PDA liposomes, following which the nanopatch-containing cells were treated with the membrane active compound melittin.

With CC(C)NCC(O)COc1cccc2ccccc12 (centres unmarked) [propranolol] the “Fluorescent emission associated with perturbation of the PDA-lipid constructs” value (CHO cells) was “characteristic fluorescent emission associated with perturbation of the PDA-lipid constructs embedded in the cell membrane is readily observed”.

CCN(CC)CC(=O)Nc1c(C)cccc1C [lidocaine] was tested, and the “Fluorescent emission of the lipid/PDA constructs (membrane perturbation)” value (U937 cells; 5 μM, 25° C., 5 to 15 minutes, FIG. 5) was “characteristic fluorescent emission” and the “Fluorescent emission of the lipid/PDA constructs (membrane perturbation)” value (U937 cells; 1 mM, FIG. 8 panel B) was “characteristic fluorescent emission associated with perturbation of the PDA construct is readily observed”.

[Ca+2] [calcium ions] was tested, and the “Fluorescent emission from the red phase of the polydiacetylene polymer” value (cultured neuronal cells) was “white fluorescent light emitted by the cells”.

CC[C@H](C)[C@H](NC(=O)CN)C(=O)NCC(=O)N[C@@H](C)C(=O)N[C@H](C(=O)N[C@@H](CC(C)C)C(=O)N[C@@H](CCCCN)C(=O)N[C@H](C(=O)N[C@@H](CC(C)C)C(=O)N[C@H](C(=O)N[C@H](C(=O)NCC(=O)N[C@@H](CC(C)C)C(=O)N1CCC[C@H]1C(=O)N[C@@H](C)C(=O)N[C@@H](CC(C)C)C(=O)N[C@H](C(=O)N[C@@H](CO)C(=O)N[C@@H](Cc1c[nH]c2ccccc12)C(=O)N[C@H](C(=O)N[C@@H](CCCCN)C(=O)N[C@@H](CCCNC(=N)N)C(=O)N[C@@H](CCCCN)C(=O)N[C@@H](CCCNC(=N)N)C(=O)N[C@@H](CCC(N)=O)C(=O)N[C@@H](CCC(N)=O)C(N)=O)[C@@H](C)CC)[C@@H](C)CC)[C@@H](C)O)[C@@H](C)O)C(C)C)C(C)C [melittin] was tested, and the “Fluorescence from transformed red PDA” value (Erythrocyte "ghosts") was “fluorescence spots”, the “Fluorescent emission of the lipid/PDA constructs (membrane perturbation)” value (U937 cells; 5 μM and 50 μM, FIG. 8 panels C, D) was “results in the characteristic fluorescent emission” and the “Dependence of fluorescent emission on dose” value (U937 cells; 5 μM versus 50 μM, FIG. 8 panels C, D) was “dose-dependent”.

With OC[C@H]1O[C@@](CO)(O[C@H]2O[C@H](CO)[C@@H](O)[C@H](O)[C@H]2O)[C@@H](O)[C@@H]1O [sucrose] the “Fluorescent emission of the lipid/PDA constructs (membrane perturbation)” value (U937 cells; 1 M, 25° C., 5 to 15 minutes, FIG. 3) was “fluorescent emission”.
